The target in test [1] is T1, Androgen receptor (Homo sapiens, UniProt P10275).
T1 sequence (P10275 whole entry): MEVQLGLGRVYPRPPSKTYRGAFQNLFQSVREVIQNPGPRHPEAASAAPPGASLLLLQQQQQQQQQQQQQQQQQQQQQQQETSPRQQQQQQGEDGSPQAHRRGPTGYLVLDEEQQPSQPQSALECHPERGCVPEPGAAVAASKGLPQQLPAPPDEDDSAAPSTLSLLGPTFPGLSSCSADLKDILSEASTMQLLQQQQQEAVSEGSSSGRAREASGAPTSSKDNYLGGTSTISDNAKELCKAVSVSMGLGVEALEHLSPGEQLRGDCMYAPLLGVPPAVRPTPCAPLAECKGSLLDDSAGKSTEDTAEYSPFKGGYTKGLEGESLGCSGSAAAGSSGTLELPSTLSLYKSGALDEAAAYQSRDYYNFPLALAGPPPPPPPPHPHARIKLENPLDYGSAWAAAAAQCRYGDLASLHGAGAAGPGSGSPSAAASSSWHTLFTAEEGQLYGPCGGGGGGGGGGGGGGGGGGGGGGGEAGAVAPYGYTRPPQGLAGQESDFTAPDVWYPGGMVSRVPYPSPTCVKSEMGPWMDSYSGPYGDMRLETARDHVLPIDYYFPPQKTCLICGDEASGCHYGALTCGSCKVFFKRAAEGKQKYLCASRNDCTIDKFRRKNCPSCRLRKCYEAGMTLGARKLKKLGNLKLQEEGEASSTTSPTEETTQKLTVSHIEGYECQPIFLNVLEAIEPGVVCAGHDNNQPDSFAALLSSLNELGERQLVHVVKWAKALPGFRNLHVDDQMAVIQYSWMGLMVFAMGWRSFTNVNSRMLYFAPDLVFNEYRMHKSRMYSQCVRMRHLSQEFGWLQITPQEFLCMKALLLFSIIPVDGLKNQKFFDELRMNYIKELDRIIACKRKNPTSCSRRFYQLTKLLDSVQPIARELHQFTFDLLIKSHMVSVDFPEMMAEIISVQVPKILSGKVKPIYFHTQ
The test is described as follows: Inhibition of human androgen receptor expressed in Escherichia coli.

A further test deals with T2, Glucocorticoid receptor (Homo sapiens, UniProt P04150).
T2 sequence (P04150 whole entry): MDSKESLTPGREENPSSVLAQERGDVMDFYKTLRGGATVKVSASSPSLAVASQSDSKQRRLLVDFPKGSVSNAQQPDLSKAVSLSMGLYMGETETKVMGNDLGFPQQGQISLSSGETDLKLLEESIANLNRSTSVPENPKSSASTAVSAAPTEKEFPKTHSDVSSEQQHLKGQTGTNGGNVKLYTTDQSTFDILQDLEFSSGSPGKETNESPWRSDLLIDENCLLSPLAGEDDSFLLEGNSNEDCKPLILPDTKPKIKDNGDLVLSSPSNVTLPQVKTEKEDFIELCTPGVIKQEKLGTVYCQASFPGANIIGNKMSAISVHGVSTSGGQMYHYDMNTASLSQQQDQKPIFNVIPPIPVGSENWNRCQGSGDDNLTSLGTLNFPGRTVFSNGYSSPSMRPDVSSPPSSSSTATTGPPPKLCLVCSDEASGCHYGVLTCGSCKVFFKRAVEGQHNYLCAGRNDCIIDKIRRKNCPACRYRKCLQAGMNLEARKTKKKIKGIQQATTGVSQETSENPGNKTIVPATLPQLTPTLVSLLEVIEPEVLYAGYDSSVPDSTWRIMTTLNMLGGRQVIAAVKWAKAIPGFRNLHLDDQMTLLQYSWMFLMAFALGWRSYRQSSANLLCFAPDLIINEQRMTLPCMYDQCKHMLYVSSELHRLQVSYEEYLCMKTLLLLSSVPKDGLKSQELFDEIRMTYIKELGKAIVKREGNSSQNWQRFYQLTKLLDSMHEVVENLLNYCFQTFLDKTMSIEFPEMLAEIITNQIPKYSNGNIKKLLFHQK
In words: Inhibition of CHO-K1 cells expressing glucocorticoid receptor. It counts as cell-based.

The target of test [2] is T1, Androgen receptor. In words: Inhibition of AR-dimerization in CHO-K1 cells expressing human androgen receptor.

The structures appear in SMILES notation.

What is called IC50 is the midpoint of a concentration-inhibition curve. Turning to `CC[C@H]1C[C@@]2(C)C(CC[C@@H]2O)C2CCC3=CC(=O)CCC3=C21` (stereo partly drawn), the IC50 is 2 nM against Androgen receptor [1] and 1290 nM against Glucocorticoid receptor.
For `CCCCC[C@H]1C[C@@]2(C)C(CC[C@@H]2O)C2CCC3=CC(=O)CCC3=C21` (stereo partly drawn), the IC50 against Androgen receptor [1] amounted to 0.1 nM; on Glucocorticoid receptor it was 125 nM; on Androgen receptor [2] it was 0.009 nM.
Turning to `CCCCCCCCCC[C@H]1C[C@@]2(C)C(CC[C@@H]2O)C2CCC3=CC(=O)CCC3=C21` (stereo partly drawn), the IC50 came to 0.8 nM at Androgen receptor [1], 1810 nM against Glucocorticoid receptor and 85 nM against Androgen receptor [2].
In the same order, the values of `CCCCCCCC[C@H]1C[C@@]2(C)C(CC[C@@H]2O)C2CCC3=CC(=O)CCC3=C21` (stereo partly drawn) are 6.6 nM, 979 nM and 0.9 nM.
Turning to `CCCCCCCCCCCC[C@H]1C[C@@]2(C)C(CC[C@@H]2O)C2CCC3=CC(=O)CCC3=C21` (stereo partly drawn), the IC50 against Androgen receptor [1] was 0.2 nM; against Glucocorticoid receptor, 870 nM.

The values above are taken from ChEMBL document CHEMBL1137214, “11beta-alkyl-Delta9-19-nortestosterone derivatives: high-affinity ligands and potent partial agonists of the androgen receptor” (J Med Chem, 2004).
